These results are taken from patent US6479499B1.

Assay [1] has as its system platelet aggregation induced by arachidonic acid (AA). In words: Antiplatelet assay, arachidonic acid-induced aggregation. The assay is classed as cell-based, rabbit. The settings on record: AA 100 μM, 37° C., 1 min preincubation, read-out: IC50, platelet aggregation induced by arachidonic acid (in vitro) (Table 6). On the procedure:
c. Antiplatelet assay. Blood, collected from the marginal ear vein of rabbits was mixed with EDTA to a final concentration of 6 mM and centrifuged at 90 g for 10 mm at room temperature to obtain platelet-rich plasma. The latter was further centrifuged at 500 g for 10 mm and the platelets were washed with Tyrode's solution without EDTA. After centrifugation at the same conditions, the platelets were suspended in Tyrode's solution with the following compositions (mM): NaCl (136.8), KCl (2.8), NaNCO3(11.9), MgCl2(1.1), NaH2PO4(0.33), CaCl2(1.0), and glucose (11.2). Platelet numbers were determined with a Coulter Counter (Model ZM) and adjusted to 4.5×10^8 platelets/ml.
Aggregation was measured by the turbidimetric method [O'brien, J. R. J. Clin. Pathol. 1962, 15,452] with a dual-channel Lumi aggregometer (Model 1020, Payton, Canada). All glass ware was siliconized. Test compounds were added one minute before the addition of the aggregation inducer and the platelet suspension was stirred at 900 rpm. The percentage of aggregation was calculated as previously described [Teng, C. M.; Chen, W. Y.; Ko, W. C.; Ouyang, C. Biochem. Biophys. Acta. 1987, 924, 375].

The next assay has as its system bone (HOS). In words: In vitro cytotoxicity, HOS. As to conditions: Homo sapiens; for IC50: 96 h, read-out: ED50 HOS; for inhibition at 20 µg/mL: read-out: Inhibition at highest test concentration (in brackets), HOS.
For assay [2], the system named is ileocecal carcinoma (HCT-8). In words: In vitro cytotoxicity, HCT-8. The settings on record: Homo sapiens; for IC50: HCT-8, 96 h, read-out: ED50 HCT-8; for inhibition at 20 µg/mL: HCT-8, read-out: Inhibition at highest test concentration (in brackets), HCT-8.
The subject of another assay is bovine brain tubulin. In words: Tubulin polymerization assay (antimicrotubule assay). As to conditions: read-out: ITP (inhibition of tubulin polymerization) IC50; tubulin […] (12 μM), 26° C., 20 min.
For a further assay, the system named is prostate cancer (PC3). In words: In vitro cytotoxicity, PC3. The settings on record: Homo sapiens; for IC50: 96 h, read-out: ED50 PC3; for inhibition at 20 µg/mL: read-out: Inhibition at highest test concentration (in brackets), PC3.
For assay [3], the system named is epidermoid carcinoma of the nasopharynx (KB). In words: In vitro cytotoxicity, KB. The settings on record: Homo sapiens; for IC50: 96 h, read-out: ED50 KB; for inhibition at 20 µg/mL: read-out: Inhibition at highest test concentration (in brackets), KB.
For assay [4], the system named is human ovarian cancer (1A9). In words: In vitro cytotoxicity, 1A9. As to conditions: 96 h, read-out: ED50 1A9.
The next assay relates to melanoma (SKMEL-2). In words: In vitro cytotoxicity, SKMEL-2. The settings on record: for IC50 / inhibition at 20 µg/mL: Homo sapiens; for IC50: SK-MEL-2, 96 h, read-out: ED50 SKMEL-2; for Inhibition value of plateau-dose response (in brackets), SKMEL-2: inhibition plateaus over broad dose range; for inhibition at 20 µg/mL: SK-MEL-2, read-out: Inhibition at highest test concentration (in brackets), SKMEL-2.

Assay [5] has as its system P-gp-expressing epidermoid carcinoma of the nasopharynx (KB-VIN). In words: In vitro cytotoxicity, KB-VIN. As to conditions: Homo sapiens, KBVIN; for IC50: 96 h, read-out: ED50 KB-VIN.
The next assay has as its system breast cancer (MCF-7). In words: In vitro cytotoxicity, MCF-7. As to conditions: Homo sapiens; for IC50: MCF7, 96 h, read-out: ED50 MCF-7; for inhibition at 20 µg/mL: MCF7, read-out: Inhibition at highest test concentration (in brackets), MCF-7.
The next assay concerns lung carcinoma (A-549). In words: In vitro cytotoxicity, A-549. The settings on record: Homo sapiens; for IC50: A549, 96 h, read-out: ED50 A-549; for inhibition at 20 µg/mL: A549, read-out: Inhibition at highest test concentration (in brackets), A-549.
Setting [6] is: Oryctolagus cuniculus, Platelet.

In brackets after ≈: the same amount, converted by molar mass. Read-outs that look alike come from different tables or passages of the source.

In the case of “4-Ethoxycarbonylbutoxy-2-phenylquinazoline [Compound 73]”, the IC50 in assay [1] is 173 µM.

For `COc1ccccc1C1NC(=O)c2ccccc2N1` (racemic) [Compound 60, 2,3-Dihydro-2-(2′-methoxyphenyl)-4-quinazolinone], the IC50 was over 20 µg/mL in the assay with bone (HOS); over 20 µg/mL in [2]; over 40 µM in the assay with bovine brain tubulin; over 20 µg/mL in the assay on prostate cancer (PC3); over 20 µg/mL in assay [3]; 14.7 µg/mL (≈ 57.8 µM) in assay [4]. Further, the IC50 was under 20 µg/mL with melanoma (SKMEL-2), 10.2 µg/mL (≈ 40.1 µM) in assay [5], over 20 µg/mL in the assay with breast cancer (MCF-7) and over 20 µg/mL in the assay with lung carcinoma (A-549). The inhibition at 20 µg/mL in the assay on bone (HOS) turned out to be 38%; in assay [2] it was 21%; in the assay on prostate cancer (PC3) it was 30%; in assay [3], 32%; in the assay on breast cancer (MCF-7) it was 48%; in the assay with lung carcinoma (A-549), 44%. In the assay on melanoma (SKMEL-2), the “Inhibition value of plateau-dose response (in brackets), SKMEL-2” value was determined as 52%.

For `COc1ccc(C2NC(=O)c3ccccc3N2)cc1` (racemic) [Compound 62, 2,3-Dihydro-2-(4′-methoxyphenyl)-4-quinazolinone], the IC50 in the assay on bone (HOS) was over 20 µg/mL; in assay [2], over 20 µg/mL; in the assay with bovine brain tubulin it was over 40 µM; with prostate cancer (PC3), over 20 µg/mL; in [3], over 20 µg/mL; in assay [4], 20 µg/mL (≈ 78.7 µM). In addition, the IC50 (with melanoma (SKMEL-2); in [5]; in the assay on breast cancer (MCF-7); with lung carcinoma (A-549)) was over 20 µg/mL throughout. The inhibition at 20 µg/mL in the assay with bone (HOS) stood at 13%; in assay [2], 19%; in the assay with prostate cancer (PC3), 14%; in assay [3] it was 14%; in the assay with melanoma (SKMEL-2) it was 23%; in [5] (read-out: Inhibition at highest test concentration (in brackets), KB-VIN), 39%. Also, the inhibition at 20 µg/mL is 44% in the assay with breast cancer (MCF-7) and 34% with lung carcinoma (A-549).

With `COc1cccc(C2NC(=O)c3ccccc3N2)c1OC` (racemic) [Compound 63, 2,3-Dihydro-2-(2′,3′-dimethoxyphenyl)-4-quinazolinone], the IC50 was over 20 µg/mL with bone (HOS); over 20 µg/mL in assay [2]; over 40 µM in the assay with bovine brain tubulin; over 20 µg/mL in the assay on prostate cancer (PC3); over 20 µg/mL in assay [3]; 11.4 µg/mL (≈ 40.1 µM) in assay [4]. Also, the IC50 in the assay on melanoma (SKMEL-2) was under 20 µg/mL; in assay [5], 8.6 µg/mL (≈ 30.2 µM); in the assay with breast cancer (MCF-7) it was over 20 µg/mL; in the assay on lung carcinoma (A-549) it was over 20 µg/mL. Moreover, the inhibition at 20 µg/mL came out at 34% with bone (HOS); 39% in assay [2]; 20% in the assay with prostate cancer (PC3); 41% in assay [3]; 40% with breast cancer (MCF-7); 39% in the assay with lung carcinoma (A-549). Further, the “Inhibition value of plateau-dose response (in brackets), SKMEL-2” value with melanoma (SKMEL-2) worked out at 53%.

As to `COc1ccc(C2NC(=O)c3ccccc3N2)c(OC)c1` (racemic) [Compound 64, 2,3-Dihydro-2-(2′,4′-dimethoxyphenyl)-4-quinazolinone], the IC50 with bone (HOS) is over 20 µg/mL; in [2], over 20 µg/mL; with bovine brain tubulin it was over 40 µM; in the assay on prostate cancer (PC3), over 20 µg/mL; in [3], over 20 µg/mL; in assay [4], 12.5 µg/mL (≈ 44 µM). The IC50 was over 20 µg/mL in the assay with melanoma (SKMEL-2), 7.6 µg/mL (≈ 26.7 µM) in assay [5], over 20 µg/mL with breast cancer (MCF-7) and over 20 µg/mL in the assay with lung carcinoma (A-549). Besides, the inhibition at 20 µg/mL in the assay on bone (HOS) worked out at 40%; in assay [2], 29%; in the assay with prostate cancer (PC3), 28%; in [3] it was 43%; with melanoma (SKMEL-2), 37%; with breast cancer (MCF-7) it was 44%. Moreover, the inhibition at 20 µg/mL with lung carcinoma (A-549) is 43%.

Regarding `COc1ccc(C2NC(=O)c3ccccc3N2)cc1OC` (racemic) [Compound 66, 2,3-Dihydro-2-(3′,4′-dimethoxyphenyl)-4-quinazolinone], the IC50 is over 20 µg/mL in the assay on bone (HOS); over 20 µg/mL in assay [2]; over 40 µM with bovine brain tubulin; over 20 µg/mL in the assay on prostate cancer (PC3); over 20 µg/mL in assay [3]; 14.6 µg/mL (≈ 51.4 µM) in assay [4]. Moreover, the IC50 in the assay with melanoma (SKMEL-2) is over 20 µg/mL; in assay [5], 16 µg/mL (≈ 56.3 µM); in the assay on breast cancer (MCF-7), 20 µg/mL (≈ 70.3 µM); with lung carcinoma (A-549), over 20 µg/mL. In addition, the inhibition at 20 µg/mL in the assay on bone (HOS) was found to be 24%; in [2] it was 25%; in the assay on prostate cancer (PC3) it was 30%; in [3], 28%; in the assay on melanoma (SKMEL-2) it was 24%; in the assay on lung carcinoma (A-549), 41%.

For the compound `CC(=O)Oc1ccccc1C(=O)O` [Aspirin], the IC50 in assay [1] (setting [6]) worked out at 20 µM.

Regarding `CCOC(=O)COc1nc(-c2ccccc2)nc2ccccc12` [Compound 71, 4-Ethoxycarbonylmethoxy-2-phenylquinazoline], in assay [1] (setting [6]), the IC50 stood at 26.9 µM.

`CCOC(=O)CCCOc1nc(-c2ccccc2)nc2ccccc12` [Compound 72, 4-Ethoxycarbonylpropoxy-2-phenylquinazoline]: the IC50 in [1] (setting [6]) stood at 30.7 µM.

For `CCOc1nc(-c2ccccc2OC)nc2ccccc12` [Compound 74, 4-Ethoxy-2-(2′-methoxyphenyl)quinazoline], the IC50 in assay [1] (setting [6]) was 214 µM.

Consider `CCOc1nc(-c2cccc(OC)c2)nc2ccccc12` [Compound 75, 4-Ethoxy-2-(3′-methoxyphenyl)quinazoline], for which, in assay [1] (setting [6]), the IC50 stood at 69.3 µM.

`CCOc1nc(-c2ccc(OC)cc2)nc2ccccc12` [Compound 76, 4-Ethoxy-2-(4′-methoxyphenyl)quinazoline]: the IC50 in assay [1] (setting [6]) was determined as 5.36 µM.

For `Cn1c(-c2ccccc2)nc2ccccc2c1=O` [Compound 77, N^3-methyl-2-phenyl-4-quinazolinone], the IC50 in assay [1] (setting [6]) stood at 183 µM.

With `CCn1c(-c2ccccc2)nc2ccccc2c1=O` [Compound 78, N^3-Ethyl-2-phenyl-4-quinazolinone], in [1] (setting [6]), the IC50 amounted to 184 µM.

`COc1ccc2c(c1)c(CC(=O)O)c(C)n2C(=O)c1ccc(Cl)cc1` [Indomethacin]: the IC50 in [1] (setting [6]) came out at 0.25 µM.

Consider “N^3-Ethoxycarbonylmethoxy-2-phenyl-4-quinazolinone [Compound 79]”, for which the IC50 in assay [1] is over 270 µM.
